Results taken from patent publication US5547960A (Mayo Foundation for Medical Education and Research, priority 1994, dated 1996).
Like-named read-outs stand apart in the source and are kept apart here.

Columns and labels:
FBS AChE = molecular target: T1, FBS AChE (Bos taurus, UniProt P23795); experiment: Inhibition of AChE (dissociation constant Ki, procedure of Y. Ashani et al.); format: biochemical
T1 construct: FBS AChE; from tissue; host or cells: fetal bovine serum (FBS read as this abbreviation)
T1 sequence (P23795 31-613): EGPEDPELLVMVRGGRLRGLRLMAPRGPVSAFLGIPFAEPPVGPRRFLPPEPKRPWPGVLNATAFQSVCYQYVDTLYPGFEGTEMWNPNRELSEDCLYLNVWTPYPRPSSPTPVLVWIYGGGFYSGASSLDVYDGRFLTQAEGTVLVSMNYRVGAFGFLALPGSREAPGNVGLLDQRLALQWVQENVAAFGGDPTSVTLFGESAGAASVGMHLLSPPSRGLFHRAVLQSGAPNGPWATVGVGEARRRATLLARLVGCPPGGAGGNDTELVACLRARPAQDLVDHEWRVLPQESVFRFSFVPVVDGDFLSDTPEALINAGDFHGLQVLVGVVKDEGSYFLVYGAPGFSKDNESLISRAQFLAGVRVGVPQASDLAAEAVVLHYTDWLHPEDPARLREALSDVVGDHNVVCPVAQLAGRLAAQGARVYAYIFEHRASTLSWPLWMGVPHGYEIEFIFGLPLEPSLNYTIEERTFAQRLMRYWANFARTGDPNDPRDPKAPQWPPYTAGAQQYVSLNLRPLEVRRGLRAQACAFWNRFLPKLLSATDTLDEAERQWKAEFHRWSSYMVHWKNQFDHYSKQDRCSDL
Source text: *Dissociation constant (Ki) for inhibition of AChE determined

mice = settings: G. P. Vincent et al., 1987; cited from earlier work
squirrel monkeys = settings: G. P. Vincent et al., 1987; cited from earlier work
myasthenia gravis = settings: 128 patients suffering from myasthenia gravis; Y. S. Cheng, 1986; cited from earlier work
Alzheimer's disease = settings: K. L. Davis, NIA meeting, Jan. 8-10, 1990; cited from earlier work
AChE [1] = settings: 0.65 mg/kg i.m., cited from earlier work
AChE [2] = settings: relative to (±)-huperzine A; U.S. Pat. No. 4,929,731; cited from earlier work
[3] = system: acetylcholinesterase (ACHE); settings: cited from earlier work
[4] = procedure of Y. Ashani et al., Molecular Pharmacol., 45, 555 (1994), read-out: FBS AChE Ki, dissociation constant for inhibition of AChE

C/C=C1\C2C=C(C)CC1(N)c1ccc(=O)[nH]c1C2C (stereo not shown) [Compound 8b, (11E)-5-Amino-11-ethylidene-5,6,9,10-tetrahydro-7,10-dimethyl-5,9-methanocycloocta[b]pyridin-2(1H)-one]
Ki (FBS AChE; [4]): 0.008 ± 0.002 µM

CC=C1C2C=C(C)CC1(N)c1ccc(=O)[nH]c1C2 (single isomer, unassigned) [huperzine A]
cognition enhancement in mice (mice): effective cognition enhancer
cognition enhancement in squirrel monkeys (squirrel monkeys): effective cognition enhancer
cases in which clinical manifestations of myasthenia gravis are controlled (myasthenia gravis): 99%

C=CCC1c2[nH]c(=O)ccc2C2(N)CC(C)=CC1/C2=C\C (stereo not shown) [Compound 8a, (11E)-10-Allyl-5-amino-11-ethylidene-5,6,9,10-tetrahydro-7-methyl-5,9-methanocycloocta[b]pyridin-5(1H)-one]
Ki (FBS AChE; [4]): 275 µM

CNC(=O)Oc1ccc2c(c1)[C@]1(C)CCN(C)[C@@H]1N2C [physostigmine]
cognitive improvement (Alzheimer's disease): modest cognitive improvement
maximal duration of AChE inhibitory action (AChE [1]; X. C. Tang et al., 1989): ≤ 60 min
side effects (AChE [1]): considerable side effects

C/C=C1\C2C=C(C)CC1(N)c1ccc(=O)[nH]c1C2CCCC (stereo not shown) [Compound 8e, (11E)-5-Amino-10-butyl-11-ethylidene-5,6,9,10-tetrahydro-7-methyl-5,9-methanocycloocta[b]pyridin-2(1H)-one]
Ki (FBS AChE; [4]): 192 µM

C/C=C1\C2C=C(C)CC1(N)c1ccc(=O)[nH]c1C2CC (stereo not shown) [Compound 8c, (11E)-5-Amino-10-ethyl-11-ethylidene-5,6,9,10-tetrahydro-7-methyl-5,9-methanocycloocta[b]pyridin-2(1H)-one]
Ki (FBS AChE): 2.04 µM

CC=C1C2C=C(C)CC1(CN)c1ccc(=O)[nH]c1C2 (stereo not shown)
times less potent than (±)-huperzine A as an inhibitor of AChE (AChE [2]): about 166 times

C/C=C1\C2C=C(C)CC1(N)c1ccc(=O)[nH]c1C2CCC (stereo not shown) [Compound 8d, (11E)-5-Amino-11-ethylidene-5,6,9,10-tetrahydro-7-methyl-10-propyl-5,9-methanocycloocta[b]pyridin-2(1H)-one]
Ki (FBS AChE; [4]): 207 µM

CC1=CC2Cc3[nH]c(=O)ccc3C3(C1)NCCCC23 (stereo not shown) [huperzine B]
usefulness as ACHE inhibitors relative to THA and physostigmine [3]: appear superior to THA and physostigmine
